Reference: patent publication US20180071317A1, “USE OF AGENTS THAT ALTER THE PERITUMORAL ENVIRONMENT FOR THE TREATMENT OF CANCER” (SERVICIO ANDALUZ DE SALUD, priority 2011, published 2018)

Assays:
[1] = tested on: co-cultures of tumor cells-endothelial cells (C-12210); test: Inhibition/survival in co-cultures of primary human tumor cells and endothelial cells; assay type: cell-based; settings: survival in reference to control, SP 1 μM, Vestipitant 1 μM
Method: To check that the interaction of primary tumor cells extracted directly from human with human vascular endothelial cells, promotes the survival of both cell types, co-cultures were performed microvascular endothelial cells from juvenile foreskins (PromoCell GmbH, Sickingenstraβe 63/65, D-69126 Heidelberg, Germany; reference C-12210) with tumor cells obtained directly from primary human tumors.
A total of 6 wells containing tumor cells were used as control for survival. Another 6 wells containing tumor cells were cultured with addition of endothelial cells.
Subsequently, cells were embedded in paraffin for analysis by immunohistochemistry. In order to identify the different cell types and quantity of them [They were labelled with primary antibodies specific for human endothelial cells (anti-CD31), carcinoma cells (Anti-Cytokeratins Spread Spectrum), glioma (Anti-glial fibrillary acidic protein), fibrosarcoma and malignant fibrous histiocytoma (Anti-Smooth Muscle Actin), Ewing sarcoma (Anti-CD99), Melanoma (Anti-HMB45), leukemias and lymphomas (Anti-Common Antigen Leucitario) and myeloma (anti CD 138). All antibodies are distributed by Dako and were used at the same concentration which is supplied (supplied pre-diluted—“ready to use”).

[2] = tested on: fibroblasts (PHF) co-cultured with tumor cells of lung carcinoma (A-427); test: Marker expression (IHC) in PHF co-cultured with A-427 tumor cells; assay type: cell-based, human; settings: co-culture with A-427 lung carcinoma; SP 1 μM + antagonist 1 μM; 48 h;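 further: cultures grown in human blood plasma from a healthy donor, value is the percentage of fibroblasts positive for each marker, six replicates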
Method: (§1) All cultures were maintained 48 hours, following which the same cells were included in paraffin blocks for subsequent analysis of the expression of different markers by immunohistochemistry (see Example 1). […] All experiments were carried out sixfold. Analyzed markers in fibroblast cells (stromal cells) were: TGF-α, TGF-β1, TGF-β2, TGF-β3, SPARC, MMP-3, MMP-7, MMP-9, MMP-11, MMP-13 and MMP-14.

[3] = tested on: fibroblasts (PHF) co-cultured with tumor cells of human Burkitt lymphoma (CA-46); test: Marker expression (IHC) in PHF co-cultured with CA-46 tumor cells; assay type: cell-based; settings: PHF co-cultured with CA-46 + SP + NK1 antagonist;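 further: percentage of PHF fibroblasts positive for each marker, cultures grown in fresh human plasma from a healthy donor, six replicates, compared with fibroblasts cultured alone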
[4] = tested on: fibroblasts of tumors produced by lung carcinoma non small cell human (HCC-44) cells; test: Marker expression (IHC) in fibroblasts of tumor or peritumoral area, mouse model, HCC-44; assay type: in vivo; settings: HCC-44 tumors in mice, 30 mg/kg/day oral, 7 days
Method: The expression on fibroblast cells obtained in the animal model was analyzed by immunohistochemistry, of the above markers: TGF-α, TGF-β1, TGF-β2, TGF-β3, MMP-7, MMP-1 1, MMP-14MP-14. […] This process was realized in mice treated with non-peptide antagonists of NK1 receptor and in untreated animals (control).

[5] = tested on: fibroblasts (PHF) co-cultured with human fibrosarcoma tumor cells (HT-1080); test: Marker expression (IHC) in PHF co-cultured with HT-1080 tumor cells; assay type: cell-based; settings: co-culture with HT-1080; SP 1 μM + antagonist 1 μM; 48 h;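 further: cultures grown in fresh human plasma from a healthy donor, six replicates, value is percent of fibroblasts positive for the marker, compared with fibroblasts cultured without tumor cells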
Method: as §1

[6] = tested on: fibroblasts (PHF) co-cultured with tumor cells, ovarian carcinoma (EFO-27); test: Marker expression (IHC) in PHF co-cultured with EFO-27 tumor cells; assay type: cell-based, human; settings: co-culture with EFO-27; SP 1 μM + antagonist 1 μM; 48 h;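 further: values are the percentage of PHF fibroblasts positive for each marker, cultured in fresh plasma from a healthy human donor, each experiment run in six replicates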
Method: as §1

[7] = tested on: fibroblasts of tumors produced by human rhabdomyosarcoma tumor line (A-204); test: Marker expression (IHC) in fibroblasts of tumor or peritumoral area, mouse model, A-204; assay type: in vivo; settings: A-204 tumors in mice, 30 mg/kg/day oral, 7 days
Method: In vitro tests conducted in Example 5 are now carried out in an experimental model in mice in vivo. […] Subsequently, the expression in fibroblasts tumoral and peritumoral area of molecular markers associated with progression and maintenance of tumors: TGF-α, TGF-β1, TGF-β2, TGF-β3, MMP-7, MMP-11, MMP-14 were analyzed by immunohistochemistry.
Were injected with 2×10^7 cells tumors (corresponding, in each case to each of the tumor types as specified in Table 9) in 200 of PBS subcutaneously μl. […] Mice were randomized into two groups when the tumors reached a volume of 75 mm^3 One group was treated with non-peptide receptor antagonists NK1 and the other with placebo 200μ1. […] Tumors and samples of non-neoplastic stromal areas remote from the tumor were halved, formalin fixed (4%) and then were included in paraffin blocks for analysis by immunohistochemistry.
The expression on fibroblast cells obtained in the animal model was analyzed by immunohistochemistry, of the above markers: TGF-α, TGF-β1, TGF-β2, TGF-β3, MMP-7, MMP-1 1, MMP-14MP-14. Tables 32 to 35 depict the type of label used and the average percentage of fibroblasts present in non-tumor areas, tumor and peritumoral (±SD) which were expressing the marker shown in each of the tumor types developed from of the different cell lines used. This process was realized in mice treated with non-peptide antagonists of NK1 receptor and in untreated animals (control).

[8] = Carcinoma of lung, (Small cell carcinoma in Table 36)
[9] = Carcinoma of lung, Non Small Cell Carcinoma in Table 36
[10] = Carcinoma of thyroid, (Follicular Carcinoma in Table 36)
[11] = Carcinoma of thyroid, (Papillary Carcinoma in Table 36)

Cc1cc(F)ccc1[C@H]1CNCCN1C(=O)N(C)[C@H](C)c1cc(C(F)(F)F)cc(C(F)(F)F)c1 [Vestipitant]
56 ± 7%: Tumor cells co-cultured with endothelial cells + SP + Vestipitant ([1]; Fibrosarcoma) | Endothelial cells co-cultured with tumor cells + SP + Vestipitant ([1]; Myeloma)
44 ± 4%: Endothelial cells co-cultured with tumor cells + SP + Vestipitant ([1]; Carcinoma of ovarian) | Tumor cells co-cultured with endothelial cells + SP + Vestipitant ([1]; Melanoma)
55 ± 6%: Tumor cells co-cultured with endothelial cells + SP + Vestipitant [1, 11]
43 ± 5%: Tumor cells co-cultured with endothelial cells + SP + Vestipitant ([1]; Non-Hodgkin's Lymphoma B)
46 ± 7%: Endothelial cells co-cultured with tumor cells + SP + Vestipitant ([1]; Fibrosarcoma) | Tumor cells co-cultured with endothelial cells + SP + Vestipitant ([1]; Malignant fibrous histiocytoma)
76 ± 5%: Tumor cells co-cultured with endothelial cells + SP + Vestipitant ([1]; Hodgkin's Lymphoma)
52 ± 5%: Endothelial cells co-cultured with tumor cells + SP + Vestipitant [1, 11]
55 ± 3%: Endothelial cells co-cultured with tumor cells + SP + Vestipitant ([1]; Carcinoma of Pancreas)
47 ± 4%: Endothelial cells co-cultured with tumor cells + SP + Vestipitant ([1]; Carcinoma of cervix) | Tumor cells co-cultured with endothelial cells + SP + Vestipitant ([1]; Carcinoma of cervix) | Endothelial cells co-cultured with tumor cells + SP + Vestipitant ([1]; Leukemia B)
57 ± 6%: Tumor cells co-cultured with endothelial cells + SP + Vestipitant ([1]; Carcinoma of ovarian)
55 ± 4%: Endothelial cells co-cultured with tumor cells + SP + Vestipitant ([1]; Carcinoma of breast)
54 ± 3%: Endothelial cells co-cultured with tumor cells + SP + Vestipitant ([1]; Carcinoma of Colon) | Endothelial cells co-cultured with tumor cells + SP + Vestipitant ([1]; Glioma) | Endothelial cells co-cultured with tumor cells + SP + Vestipitant ([1]; Renal carcinoma)
45 ± 6%: Endothelial cells co-cultured with tumor cells + SP + Vestipitant [1, 8]
65 ± 4%: Endothelial cells co-cultured with tumor cells + SP + Vestipitant ([1]; Non-Hodgkin's Lymphoma B)
53 ± 4%: Endothelial cells co-cultured with tumor cells + SP + Vestipitant ([1]; Malignant fibrous histiocytoma)
47 ± 6%: Tumor cells co-cultured with endothelial cells + SP + Vestipitant ([1]; Carcinoma of endometrial) | Tumor cells co-cultured with endothelial cells + SP + Vestipitant ([1]; Sarcoma of Ewing)
51 ± 6%: Endothelial cells co-cultured with tumor cells + SP + Vestipitant ([1]; Carcinoma of prostate)
57 ± 4%: Endothelial cells co-cultured with tumor cells + SP + Vestipitant ([1]; Leukemia T)
65 ± 6%: Tumor cells co-cultured with endothelial cells + SP + Vestipitant ([1]; Carcinoma of Colon)
81 ± 5%: Tumor cells co-cultured with endothelial cells + SP + Vestipitant ([1]; Non-Hodgkin's Lymphoma T)
62 ± 3%: Endothelial cells co-cultured with tumor cells + SP + Vestipitant ([1]; Carcinoma of stomach)
66 ± 3%: Tumor cells co-cultured with endothelial cells + SP + Vestipitant ([1]; Myeloma)
46 ± 3%: Endothelial cells co-cultured with tumor cells + SP + Vestipitant ([1]; Neuroblastoma)
47 ± 5%: Tumor cells co-cultured with endothelial cells + SP + Vestipitant ([1]; Carcinoma of Pancreas) | Tumor cells co-cultured with endothelial cells + SP + Vestipitant [1, 10] | Tumor cells co-cultured with endothelial cells + SP + Vestipitant ([1]; Glioma) | Endothelial cells co-cultured with tumor cells + SP + Vestipitant ([1]; Hodgkin's Lymphoma)
55 ± 5%: Tumor cells co-cultured with endothelial cells + SP + Vestipitant ([1]; Carcinoma of breast) | Endothelial cells co-cultured with tumor cells + SP + Vestipitant ([1]; Melanoma)
46 ± 4%: Endothelial cells co-cultured with tumor cells + SP + Vestipitant [1, 10] | Endothelial cells co-cultured with tumor cells + SP + Vestipitant ([1]; Sarcoma of Ewing)
67 ± 5%: Tumor cells co-cultured with endothelial cells + SP + Vestipitant [1, 8]
48 ± 6%: Tumor cells co-cultured with endothelial cells + SP + Vestipitant ([1]; Carcinoma of prostate) | Endothelial cells co-cultured with tumor cells + SP + Vestipitant ([1]; Non-Hodgkin's Lymphoma T)
56 ± 5%: Endothelial cells co-cultured with tumor cells + SP + Vestipitant ([1]; Carcinoma of endometrial)
56 ± 4%: Tumor cells co-cultured with endothelial cells + SP + Vestipitant ([1]; Carcinoma of stomach) | Tumor cells co-cultured with endothelial cells + SP + Vestipitant ([1]; Leukemia T) | Tumor cells co-cultured with endothelial cells + SP + Vestipitant ([1]; Neuroblastoma)
0%: PHF cells expressing MMP-3 [2] | PHF cells expressing MMP-7 [2] | PHF cells expressing MMP-9 [2] | PHF cells expressing MMP-11 [2] | PHF cells expressing MMP-13 [2] | PHF cells expressing MMP-14 [2] | PHF cells expressing SPARC [2] | PHF cells expressing TGF-α [2] | PHF cells expressing TGF-β1 [2] | PHF cells expressing TGF-β2 [2] | PHF cells expressing TGF-β3 [2] | cells expressing MMP-3 [3] | cells expressing MMP-7 [3] | cells expressing MMP-9 [3] | cells expressing MMP-11 [3] | cells expressing MMP-13 [3] | cells expressing MMP-14 [3] | cells expressing SPARC [3] | cells expressing TGF-α [3] | cells expressing TGF-β1 [3] | cells expressing TGF-β2 [3] | cells expressing TGF-β3 [3] | fibroblasts expressing MMP-7 [4] | fibroblasts expressing MMP-11 [4] | fibroblasts expressing MMP-14 [4] | fibroblasts expressing TGF-α [4] | fibroblasts expressing TGF-β 1 [4] | fibroblasts expressing TGF-β 2 [4] | fibroblasts expressing TGF-β 3 [4] | PHF cells expressing MMP-3 [5] | PHF cells expressing MMP-7 [5] | PHF cells expressing MMP-9 [5] | PHF cells expressing MMP-11 [5] | PHF cells expressing MMP-13 [5] | PHF cells expressing MMP-14 [5] | PHF cells expressing SPARC [5] | PHF cells expressing TGF-α [5] | PHF cells expressing TGF-β1 [5] | PHF cells expressing TGF-β2 [5] | PHF cells expressing TGF-β3 [5] | PHF cells expressing MMP-3 [6] | PHF cells expressing MMP-7 [6] | PHF cells expressing MMP-9 [6] | PHF cells expressing MMP-11 [6] | PHF cells expressing MMP-13 [6] | PHF cells expressing MMP-14 [6] | PHF cells expressing SPARC [6] | PHF cells expressing TGF-α [6] | PHF cells expressing TGF-β1 [6] | PHF cells expressing TGF-β2 [6] | PHF cells expressing TGF-β3 [6] | fibroblasts expressing MMP-7 [7] | fibroblasts expressing MMP-11 [7] | fibroblasts expressing MMP-14 [7] | fibroblasts expressing TGF-α [7] | fibroblasts expressing TGF-β 1 [7] | fibroblasts expressing TGF-β 2 [7] | fibroblasts expressing TGF-β 3 [7]
64 ± 6%: Tumor cells co-cultured with endothelial cells + SP + Vestipitant [1, 9]
53 ± 5%: Tumor cells co-cultured with endothelial cells + SP + Vestipitant ([1]; Leukemia B)
45 ± 3%: Endothelial cells co-cultured with tumor cells + SP + Vestipitant [1, 9]
54 ± 4%: Tumor cells co-cultured with endothelial cells + SP + Vestipitant ([1]; Renal carcinoma)
